Here are results for 15 compounds from US8889881B2, “Compound having skin-whitening, anti-oxidizing and PPAR activities and medical use therefor” (Pusan National University Industry —University Cooperation …, priority 2011, dated 2014).

What is called melting point is the temperature, or range, at which the solid turns liquid.

The target of data set [1] is T1, PPAR gamma-LBD (Homo sapiens, UniProt P37231).
T1 sequence (P37231 238-503 limits assumed): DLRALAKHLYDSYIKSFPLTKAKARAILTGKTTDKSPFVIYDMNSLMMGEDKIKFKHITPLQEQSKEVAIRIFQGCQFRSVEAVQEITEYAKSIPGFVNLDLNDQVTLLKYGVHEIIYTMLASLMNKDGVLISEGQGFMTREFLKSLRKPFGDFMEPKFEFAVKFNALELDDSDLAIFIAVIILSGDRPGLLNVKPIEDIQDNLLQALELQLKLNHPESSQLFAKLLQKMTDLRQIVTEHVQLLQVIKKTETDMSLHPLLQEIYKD
Briefly: PPAR assay, PPARγ. The class given is binding. Particulars: sample final concentration 100 μM; positive control rosiglitazone; FIGS. 7 and 8.

In data set [2] the target is T2, PPAR alpha-LBD (Homo sapiens, UniProt Q07869).
T2 sequence (Q07869 239-466 limits assumed): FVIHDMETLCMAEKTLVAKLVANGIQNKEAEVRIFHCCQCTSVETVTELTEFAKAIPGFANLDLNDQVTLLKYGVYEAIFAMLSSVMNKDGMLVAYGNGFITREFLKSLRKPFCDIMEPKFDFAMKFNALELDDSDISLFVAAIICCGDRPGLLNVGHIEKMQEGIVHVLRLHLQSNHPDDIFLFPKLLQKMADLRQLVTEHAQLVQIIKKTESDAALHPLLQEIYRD
Put plainly: PPAR assay, PPARα. The note with it: for PPARα activation (competitive activation rate), compared with fenofibrate: sample final concentration 100 μM, positive control fenofibrate, FIGS. 5 and 6; for simultaneous activation of PPARα and PPARγ: summary of the PPARα and PPARγ assays, sample 100 μM.

In turn, `COc1cc(-c2nc3ccccc3s2)cc(OC)c1OC` [Compound 24, 2-(3,4,5-trimethoxyphenyl)benzo[d]thiazole] had a melting point of 149.5 to 151.1 °C. Moreover, the “PPARγ activation (competitive activation rate), compared with rosiglitazone” value (“PPARγ activation … compared with rosiglitazone” below) in data set [1] is listed as “very excellent PPARγ activation agent compared to rosiglitazone”. Moreover, in data set [2], the “PPARα activation (competitive activation rate), compared with fenofibrate” value (“PPARα activation … compared with fenofibrate” below) is recorded as “very excellent PPARα activation agent compared to fenofibrate”; the “simultaneous activation of PPARα and PPARγ” value (“simultaneous activation” below) was “simultaneously activates PPARα and PPARγ”.

`COc1ccc(-c2nc3cc(C(=O)O)ccc3[nH]2)cc1` [Compound 63, 2-(4-methoxyphenyl)-1H-benzo[d]imidazole-5-carboxylic acid] had a melting point of 264.7 to 265.4 °C. Besides, in data set [1], the “PPARγ activation … compared with rosiglitazone” value is given as “very excellent PPARγ activation agent compared to rosiglitazone”. For the same compound, in data set [2], the “PPARα activation … compared with fenofibrate” value is given as “very excellent PPARα activation agent compared to fenofibrate”; the “simultaneous activation” value is “simultaneously activates PPARα and PPARγ”.

Consider `COc1cc(-c2nc3cc(C(=O)O)ccc3[nH]2)cc(OC)c1OC` [Compound 67, 2-(3,4,5-trimethoxyphenyl)-1H-benzo[d]imidazole-5-carboxylic acid], for which the “PPARγ activation … compared with rosiglitazone” value in data set [1] is “very excellent PPARγ activation agent compared to rosiglitazone”. For the same compound, in data set [2], the “PPARα activation … compared with fenofibrate” value is given as “very excellent PPARα activation agent compared to fenofibrate”; the “simultaneous activation” value was “simultaneously activates PPARα and PPARγ”.

As for `O=C(O)c1ccc2[nH]c(-c3ccc(O)c(Br)c3)nc2c1` [Compound 69, 2-(3-bromo-4-hydroxyphenyl)-1H-benzo[d]imidazole-5-carboxylic acid], in data set [1], the “PPARγ activation … compared with rosiglitazone” value is given as “very excellent PPARγ activation agent compared to rosiglitazone”. Besides, in data set [2], the “PPARα activation … compared with fenofibrate” value is “very excellent PPARα activation agent compared to fenofibrate”; the “simultaneous activation” value is “simultaneously activates PPARα and PPARγ”.

As to `COc1cc(-c2nc3ccccc3s2)ccc1O` [Compound 16, 4-(benzo[d]thiazol-2-yl)-2-methoxyphenol], in data set [1], the “PPARγ activation … compared with rosiglitazone” value is listed as “very excellent PPARγ activation agent compared to rosiglitazone”. Also, in data set [2], the “PPARα activation … compared with fenofibrate” value is “very excellent PPARα activation agent compared to fenofibrate”; the “simultaneous activation” value was “simultaneously activates PPARα and PPARγ”.

As to `O=C(O)c1ccc2[nH]c(-c3cc(Br)c(O)c(Br)c3)nc2c1` [Compound 70, 2-(3,5-dibromo-4-hydroxyphenyl)-1H-benzo[d]imidazole-5-carboxylic acid], in data set [1], the “PPARγ activation … compared with rosiglitazone” value was “very excellent PPARγ activation agent compared to rosiglitazone”. For the same compound, in data set [2], the “PPARα activation … compared with fenofibrate” value was “very excellent PPARα activation agent compared to fenofibrate”; the “simultaneous activation” value was “simultaneously activates PPARα and PPARγ”.

Turning to `O=C(O)c1ccc2[nH]c(-c3ccccc3O)nc2c1` [Compound 66, 2-(2-hydroxyphenyl)-1H-benzo[d]imidazole-5-carboxylic acid], the “PPARγ activation … compared with rosiglitazone” value in data set [1] is “very excellent PPARγ activation agent compared to rosiglitazone”. Also, in data set [2], the “PPARα activation … compared with fenofibrate” value was “very excellent PPARα activation agent compared to fenofibrate”; the “simultaneous activation” value was “simultaneously activates PPARα and PPARγ”.

Take `COc1ccc(-c2nc3ccccc3[nH]2)c(OC)c1` [Compound 52, 2-(2,4-dimethoxyphenyl)-1H-benzo[d]imidazole]: the “PPARγ activation … compared with rosiglitazone” value in data set [1] was “very excellent PPARγ activation agent compared to rosiglitazone”. In data set [2], the “PPARα activation … compared with fenofibrate” value is “very excellent PPARα activation agent compared to fenofibrate”; the “simultaneous activation” value is “simultaneously activates PPARα and PPARγ”.

For `Oc1ccccc1-c1nc2ccccc2[nH]1` [Compound 53, 2-(1H-benzo[d]imidazol-2-yl)phenol], in data set [1], the “PPARγ activation … compared with rosiglitazone” value was “very excellent PPARγ activation agent compared to rosiglitazone”. For the same compound, in data set [2], the “PPARα activation … compared with fenofibrate” value is “very excellent PPARα activation agent compared to fenofibrate”; the “simultaneous activation” value is “simultaneously activates PPARα and PPARγ”.

Take `COc1ccc(-c2nc3cc(C(=O)O)ccc3[nH]2)c(OC)c1` [Compound 65, 2-(2,4-dimethoxyphenyl)-1H-benzo[d]imidazole-5-carboxylic acid]: the “PPARγ activation … compared with rosiglitazone” value in data set [1] was “very excellent PPARγ activation agent compared to rosiglitazone”. Besides, in data set [2], the “PPARα activation … compared with fenofibrate” value is “very excellent PPARα activation agent compared to fenofibrate”; the “simultaneous activation” value was “simultaneously activates PPARα and PPARγ”.

In the case of `Oc1ccc(-c2nc3ccccc3[nH]2)cc1` [Compound 43, 4-(1H-benzo[d]imidazol-2-yl)phenol], the “PPARγ activation … compared with rosiglitazone” value in data set [1] is recorded as “very excellent PPARγ activation agent compared to rosiglitazone”. In addition, in data set [2], the “PPARα activation … compared with fenofibrate” value is recorded as “very excellent PPARα activation agent compared to fenofibrate”; the “simultaneous activation” value was “simultaneously activates PPARα and PPARγ”.

For the compound `O=C(O)c1ccc2[nH]c(-c3ccc(OCc4ccccc4)cc3)nc2c1` [Compound 113, 2-(4-(benzyloxy)phenyl)-1H-benzo[d]imidazole-5-carboxylic acid], in data set [1], the “PPARγ activation … compared with rosiglitazone” value is recorded as “very excellent PPARγ activation agent compared to rosiglitazone”. Also, in data set [2], the “PPARα activation … compared with fenofibrate” value is recorded as “very excellent PPARα activation agent compared to fenofibrate”; the “simultaneous activation” value was “simultaneously activates PPARα and PPARγ”.

`COc1ccc(-c2nc3cc(C(=O)O)ccc3[nH]2)cc1OC` [Compound 64, 2-(3,4-dimethoxyphenyl)-1H-benzo[d]imidazole-5-carboxylic acid]: the “PPARγ activation … compared with rosiglitazone” value in data set [1] is “very excellent PPARγ activation agent compared to rosiglitazone”. In data set [2], the “PPARα activation … compared with fenofibrate” value was “very excellent PPARα activation agent compared to fenofibrate”; the “simultaneous activation” value is “simultaneously activates PPARα and PPARγ”.

Regarding `CCOc1cc(-c2nc3ccccc3[nH]2)ccc1O` [Compound 47, 4-(1H-benzo[d]imidazol-2-yl)-2-ethoxyphenol], the “PPARγ activation … compared with rosiglitazone” value in data set [1] is “very excellent PPARγ activation agent compared to rosiglitazone”. Also, in data set [2], the “PPARα activation … compared with fenofibrate” value was “very excellent PPARα activation agent compared to fenofibrate”; the “simultaneous activation” value was “simultaneously activates PPARα and PPARγ”.

Consider `COc1ccc(-c2nc3cc(C(F)(F)F)ccc3s2)cc1` [Compound 34, 2-(4-methoxyphenyl)-5-(trifluoromethyl)benzo[d]thiazole], for which the melting point is 128.8 to 130.1 °C. In addition, the “PPARγ activation … compared with rosiglitazone” value in data set [1] was “very excellent PPARγ activation agent compared to rosiglitazone”.
